For eight compounds, GI50 and TGI results are on record in PubChem BioAssay (NCI).

Values joined by “and” are separate entries in the source; they are usually repeats but may differ in a detail not shown here. Equal values may be shown once.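 Cells were grown in 96-well plates and exposed to each compound for 48 hours at five concentrations; endpoints were interpolated linearly between bracketing concentrations, or set to the highest concentration if not reached. At the GI50, growth is halved. The concentration for full growth arrest is given as TGI.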

Among the test systems are HOP-92 NSCLC; NCI-H23 lung; SR leukemia; CAKI-1 renal; CCRF-CEM leukemia; SK-MEL-2 melanoma; SK-OV-3 ovarian; MCF7 breast; OVCAR-3 ovarian; HOP-62 NSCLC.
Experiment in all cases: NCI anticancer screen, dose series, 48 h

With `C/C(=C(\c1ccc(OCCN2CCCCCC2)cc1)c1ccc(OC(=O)c2ccccc2)cc1)c1ccc(Cl)cc1`, the GI50 in the assay with HOP-92 NSCLC is 3.57 µM; in the assay on NCI-H23 lung it was 4.73 µM; with SR leukemia it was 996 nM; in the assay with CAKI-1 renal, 3860 nM; in the assay with CCRF-CEM leukemia, 4.2 µM; with SK-MEL-2 melanoma, 5320 nM. The GI50 with SK-OV-3 ovarian is 4.41 µM; in the assay with MCF7 breast it was 0.348 µM; in the assay with OVCAR-3 ovarian, 4.06 µM; in the assay with HOP-62 NSCLC, 4350 nM. Moreover, the TGI in the assay with HOP-92 NSCLC was 7.8 µM; with NCI-H23 lung, 11 µM; with SR leukemia, 3.33 µM; in the assay on CAKI-1 renal, 9.27 µM; with CCRF-CEM leukemia, 16.4 µM; in the assay with SK-MEL-2 melanoma it was 10.5 µM. In addition, the TGI was 9.52 µM in the assay with SK-OV-3 ovarian, 5.94 µM in the assay on MCF7 breast, 8.49 µM in the assay on OVCAR-3 ovarian and 8.95 µM in the assay on HOP-62 NSCLC.
Turning to `CC[C@@H](C)/C=C(C)/C=C/C(=O)c1c(O)c(-c2ccc(O)cc2)cn(O)c1=O`, the GI50 with HOP-92 NSCLC is 0.137 µM; in the assay on NCI-H23 lung it was 0.562 µM; in the assay on SR leukemia it was 250 nM; with CAKI-1 renal, 290 nM; in the assay with CCRF-CEM leukemia, 0.314 µM; in the assay with SK-MEL-2 melanoma, 329 nM. Also, the GI50 in the assay with SK-OV-3 ovarian is 0.642 µM; with MCF7 breast it was 0.365 µM; in the assay on OVCAR-3 ovarian, 0.395 µM; in the assay on HOP-62 NSCLC it was 492 nM. For the same compound, the TGI was 1.86 µM in the assay on HOP-92 NSCLC; 9.93 µM with NCI-H23 lung; 4.82 µM in the assay with SR leukemia; 1.55 µM in the assay with CAKI-1 renal; 13.1 µM in the assay on CCRF-CEM leukemia; 16.8 µM with SK-MEL-2 melanoma. For the same compound, the TGI was 21.7 µM with SK-OV-3 ovarian, 16.5 µM with MCF7 breast, 13 µM in the assay with OVCAR-3 ovarian and 14.7 µM in the assay on HOP-62 NSCLC.
Consider `CC(C)CCCCCCCCCCCCC(=O)NCC(=O)NC1C(O)C(O)C(Nc2ncnc3nc[nH]c23)OC1C(O)CO` (stereo unspecified), for which the GI50 with HOP-92 NSCLC is under 1e-05 µM; with NCI-H23 lung it was 0.005 µM; in the assay with SR leukemia, under 0.01 nM; in the assay on CAKI-1 renal, under 0.01 nM; with CCRF-CEM leukemia, 0.0318 µM and 0.023 µM; with SK-MEL-2 melanoma it was under 0.01 nM. The GI50 in the assay on SK-OV-3 ovarian is 0.005 µM; with MCF7 breast, 0.00287 µM and 0.0113 µM; in the assay with HOP-62 NSCLC, under 0.01 nM. Moreover, the TGI is 0.0354 µM and 0.0371 µM in the assay with NCI-H23 lung; 0.0011 µM and 0.000619 µM in the assay on CAKI-1 renal; 0.59 µM and 3.36 µM with CCRF-CEM leukemia; 0.0117 µM and 0.0389 µM and 0.0107 µM in the assay with SK-MEL-2 melanoma; 0.00344 µM and 0.0224 µM in the assay with SK-OV-3 ovarian; 0.394 µM and 0.352 µM in the assay on MCF7 breast. Moreover, the TGI in the assay on OVCAR-3 ovarian is 0.00189 µM and 0.00279 µM and 0.00509 µM.
Consider `Nc1ccccc1C(=O)CCC1C(=O)NC(=S)NC1=O`, for which the TGI in the assay with HOP-92 NSCLC, in the assay on NCI-H23 lung, in the assay with SR leukemia, in the assay with CAKI-1 renal, with CCRF-CEM leukemia and with SK-MEL-2 melanoma was over 100 µM each time. Besides, the TGI with SK-OV-3 ovarian, with MCF7 breast, in the assay with OVCAR-3 ovarian and in the assay on HOP-62 NSCLC was over 100 µM in each case.
Turning to `CC1(C)CCCC(C)(C2CCC3(C)C2C(O)CC2C4(C)CCC(O)C(C)(C)C4CCC23C)O1` (stereo unspecified), the TGI with HOP-92 NSCLC, in the assay on NCI-H23 lung, in the assay with SR leukemia, in the assay with CAKI-1 renal, with CCRF-CEM leukemia and with SK-MEL-2 melanoma was over 100 µM each time. Also, the TGI in the assay on SK-OV-3 ovarian and in the assay with MCF7 breast was over 100 µM each time.
With `COc1cc(C(=O)c2cnc(-c3cccc4[nH]ccc34)[nH]2)cc(OC)c1OC`, the GI50 in the assay on HOP-92 NSCLC is 1.5 µM; with SR leukemia, under 10 nM; in the assay on CAKI-1 renal it was under 10 nM; with SK-MEL-2 melanoma, under 10 nM; in the assay on SK-OV-3 ovarian it was 0.0542 µM and < 0.01 µM; in the assay on MCF7 breast it was 0.059 µM and < 0.01 µM. Besides, the GI50 is 0.0366 µM and < 0.01 µM with OVCAR-3 ovarian; under 10 nM in the assay with HOP-62 NSCLC. The TGI with HOP-92 NSCLC is 48.1 µM; in the assay with NCI-H23 lung, over 100 µM; in the assay with SR leukemia it was over 100 µM; in the assay on CAKI-1 renal it was over 100 µM; in the assay on CCRF-CEM leukemia, over 100 µM; in the assay with SK-MEL-2 melanoma, 36.1 µM. The TGI was under 0.01 µM in the assay with SK-OV-3 ovarian, over 100 µM with MCF7 breast and 20 µM with HOP-62 NSCLC.
Turning to `CCCCCCCCCCCCOC1C(CNC(=O)C2OC3OC(C)(C)OC3C2NC(=O)CN2CCN(c3ccc(OC)cc3)CC2)OC2OC(C)(C)OC21` (stereo unspecified), the GI50 in the assay with HOP-92 NSCLC was 3.17 µM; in the assay on NCI-H23 lung it was 9.68 µM; with SR leukemia, 2860 nM; in the assay with CAKI-1 renal, 12100 nM; in the assay with CCRF-CEM leukemia, 4.1 µM; in the assay with SK-MEL-2 melanoma, 11700 nM. Further, the GI50 is 5.87 µM with SK-OV-3 ovarian, 2.81 µM in the assay on MCF7 breast, 4.01 µM with OVCAR-3 ovarian and 5070 nM in the assay with HOP-62 NSCLC. Also, the TGI with HOP-92 NSCLC was determined as 12.2 µM; with NCI-H23 lung it was 32 µM; in the assay with SR leukemia, 6.07 µM; in the assay on CAKI-1 renal it was 24.5 µM; in the assay on CCRF-CEM leukemia, 16.9 µM; with SK-MEL-2 melanoma, 23.9 µM. The TGI with SK-OV-3 ovarian was found to be 17.7 µM; in the assay with MCF7 breast it was 8.29 µM; in the assay with OVCAR-3 ovarian, 14.5 µM; in the assay with HOP-62 NSCLC, 20.5 µM.
Consider `COc1cc(C2c3cc4c(cc3C(OC(=O)C[n+]3ccccc3)C3COC(=O)C23)OCO4)cc(OC)c1OC` (stereo unspecified), for which the GI50 in the assay on HOP-92 NSCLC is under 0.013 µM; with NCI-H23 lung it was under 0.0217 µM; in the assay with SR leukemia, under 16 nM; with CAKI-1 renal it was under 18.4 nM; in the assay with CCRF-CEM leukemia, under 0.0205 µM; in the assay on SK-MEL-2 melanoma, under 10 nM. The GI50 with SK-OV-3 ovarian is under 0.0207 µM; in the assay with MCF7 breast, under 0.014 µM; with OVCAR-3 ovarian, under 0.016 µM; in the assay with HOP-62 NSCLC, under 25.9 nM. In addition, the TGI was 2.74 µM in the assay on HOP-92 NSCLC; over 100 µM in the assay on NCI-H23 lung; over 100 µM with SR leukemia; over 100 µM in the assay on CAKI-1 renal; over 100 µM with CCRF-CEM leukemia; over 100 µM with SK-MEL-2 melanoma. Further, the TGI with SK-OV-3 ovarian was over 100 µM; in the assay with MCF7 breast, over 100 µM; in the assay with OVCAR-3 ovarian, under 0.0255 µM; with HOP-62 NSCLC it was over 100 µM.
